Results reported in article PMC12818745 (ACS Chemical Neuroscience, 2025).

Tests used:
[1] = molecular target: T1, eqBChE (equine serum butyrylcholinesterase) (Equus caballus, UniProt P81908); assay: Cholinesterase inhibition assay (modified Ellman's method), eqBChE; format: biochemical
T1 construct: eqBChE (equine serum butyrylcholinesterase); from tissue; host or cells: equine serum
Source text: (§1) Compound series A and B were initially screened for their cholinesterase activity against eeAChE (Electrophorus electricus AChE) and eqBChE (equine serum butyrylcholinesterase), using an adaptation of the Ellman’s method. […]. […] Similarly, replacing the terminal triple bond in 7l with a nitrile group reduced its activity, while replacing the O-propargyl group with an N,N-dipropargyl group in 10 enhanced the inhibition of both enzymes, particularly BChE (Table ). The installation of an additional aryl ring in 7o further improved AChE inhibition, slightly increasing selectivity toward this enzyme. […]. […]. […]. The inhibitory activity of the synthesized compounds toward eeAChE and eqBChE was evaluated spectrophotometrically through a 96-well microplate modified Ellman’s method. The solutions of both enzymes were prepared as 0.025 U/mL in phosphate buffer at pH 7, from stock solutions of 5.05 U/mL and 7.50 U/mL, respectively. The stock solutions for the target compounds (0.1 M) were prepared in dimethyl sulfoxide (DMSO). […] The reaction mixture was prepared with 100 μL of the enzyme (eeAChE or eqBChE) and 50 μL of the test compound (or DMSO/water, not exceeding 0.2% of DMSO in the wells; i.e blank samples). After 5 min of the preincubation period at 37 °C, 50 μL of ATChI or BTChI and 50 μL of DTNB were added to each well, thus initiating the enzymatic reaction. The absorbance values were measured at 415 nm, for a total of 7.5 min, at every 2.5 min, using a microplate reader (Synergy multimode reader; BioTek). […]. All experiments were performed in triplicate.

[2] = molecular target: T2, Aβ42 aggregation (Homo sapiens, UniProt P05067); assay: Thioflavin S assay of Aβ42 aggregation in E. coli cells overexpressing Aβ42; format: cell-based, Escherichia coli; details: read-out: Aβ42 inhibition %
T2 construct: expressed in transfected cells; host or cells: E. coli BL21 (DE3), pET vector
T2 sequence (P05067 672-713): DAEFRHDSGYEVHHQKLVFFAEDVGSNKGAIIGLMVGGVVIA
Protocol: (§2) The antiaggregating profiles of both series A and B were evaluated using a fluorescence Thioflavin S (ThS) assay in cellulo, which monitors ThS fluorescence in the presence of β-sheet-rich structures, such as Aβ and tau protein aggregates. This method, based on recombinant Escherichia coli (E. coli) bacteria overexpressing insoluble aggregates, offers a simple and cost-effective approach to model aggregation processes in mammalian systems and has been validated for use in drug discovery studies. , Compounds were tested at a screening concentration of 50 μM for their ability to inhibit Aβ42 aggregation. The results, summarized in Table , reveal distinct antiaggregating profiles between series A and B, which are once again influenced by their structural differences.
42 Amino acid Aβ42 was cloned and overexpressed in E. coli BL21 (DE3) competent cells using the pET vector harboring the DNA sequence of Aβ42. Due to the addition of the initiation codon ATG preceding genes, the resulting overexpressed peptide contained an additional methionine residue at its N-terminus. For the preparation of overnight cultures, a colony of BL21 (DE3) cells carrying the plasmid for expression was inoculated in 10 mL of M9 minimal medium supplemented with 50 μg mL^–1 kanamycin at 37 °C. Subsequently, a 1:500 dilution of the overnight culture was added to fresh M9 minimal medium containing 50 μg mL^–1 kanamycin and 25 μM ThS. The bacterial culture was then incubated at 37 °C with agitation at 250 rpm. Upon reaching an OD600 of 0.6, 980 μL of the culture was transferred into 1.5 mL Eppendorf tubes, each containing 10 μL of the compound to be tested dissolved in DMSO and 10 μL of 100 mM isopropyl 1-thio-β-D-galactopyranoside (IPTG) or, alternatively, 10 μL of water for the noninduced controls. The final compound concentration was adjusted to […]. The samples were allowed to grow overnight at 37 °C with agitation at 1400 rpm using a Thermomixer (Eppendorf). Negative controls, representing maximum amyloid presence, utilized free DMSO.
(§3) ThS (T1892) and all other chemical reagents were purchased from Sigma (St. Louis, MO). Stock solutions of ThS (250 μM) were prepared using doubly distilled water purified via a Milli-Q system (Millipore). For the fluorescence assay, ThS spectra were recorded utilizing an AmincoBowman series 2 luminescence spectrophotometer (Aminco-Bowman AB2, SLM Aminco, Rochester, NY) within the range of 460 to 600 nm at a temperature of 25 °C. The excitation wavelength employed was 445 nm, with slit widths set at 4 nm. The emission at 485 nm, corresponding to the ThS peak observed in the presence of amyloids, was recorded. To standardize ThS fluorescence relative to bacterial concentration in both in vitro and cell-based assays, the OD600 was determined using a Shimadzu UV-2401 PC UV–vis spectrophotometer. Fluorescence normalization was executed by setting the ThS fluorescence of bacterial cells expressing the peptide or protein in the absence of the drug as 100%, while that of bacterial cells not expressing the peptide or protein was established as 0%.

[3] = molecular target: eeAChE (Electrophorus electricus AChE) (Electrophorus electricus, UniProt O42275); assay: Cholinesterase inhibition assay (modified Ellman's method), eeAChE; format: biochemical; details: for SI eeAChE: ratio eqBChE IC50/eeAChE IC50
eeAChE (Electrophorus electricus AChE), sequence (O42275 24-633): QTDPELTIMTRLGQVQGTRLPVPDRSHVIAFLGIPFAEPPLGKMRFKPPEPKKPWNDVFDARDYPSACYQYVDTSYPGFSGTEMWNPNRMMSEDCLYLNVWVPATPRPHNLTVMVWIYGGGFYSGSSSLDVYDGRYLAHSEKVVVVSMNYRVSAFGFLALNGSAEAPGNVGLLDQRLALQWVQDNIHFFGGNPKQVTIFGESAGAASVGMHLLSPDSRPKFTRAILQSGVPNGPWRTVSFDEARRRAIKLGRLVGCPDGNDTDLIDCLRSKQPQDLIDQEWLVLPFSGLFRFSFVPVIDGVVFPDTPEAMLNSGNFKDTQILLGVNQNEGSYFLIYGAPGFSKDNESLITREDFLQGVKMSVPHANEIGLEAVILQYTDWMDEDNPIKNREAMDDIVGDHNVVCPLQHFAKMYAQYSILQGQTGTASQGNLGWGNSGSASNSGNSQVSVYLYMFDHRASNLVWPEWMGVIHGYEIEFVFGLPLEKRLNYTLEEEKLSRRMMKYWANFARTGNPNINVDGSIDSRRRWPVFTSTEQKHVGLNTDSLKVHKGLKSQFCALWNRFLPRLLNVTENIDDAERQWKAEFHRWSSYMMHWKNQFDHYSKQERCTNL
Source text: as §1

[4] = molecular target: T3, Tau protein aggregation (Homo sapiens, UniProt P10636); assay: Thioflavin S assay of tau protein aggregation in E. coli cells overexpressing tau; format: cell-based, Escherichia coli; details: read-out: Tau inhibition %
T3 construct: For the cloning and overexpression of full-length tau protein; expressed in transfected cells; host or cells: E. coli BL21 (DE3) carrying pTARA and pRKT42
T3 sequence (P10636 other isoform, or with tags, fused parts or gaps): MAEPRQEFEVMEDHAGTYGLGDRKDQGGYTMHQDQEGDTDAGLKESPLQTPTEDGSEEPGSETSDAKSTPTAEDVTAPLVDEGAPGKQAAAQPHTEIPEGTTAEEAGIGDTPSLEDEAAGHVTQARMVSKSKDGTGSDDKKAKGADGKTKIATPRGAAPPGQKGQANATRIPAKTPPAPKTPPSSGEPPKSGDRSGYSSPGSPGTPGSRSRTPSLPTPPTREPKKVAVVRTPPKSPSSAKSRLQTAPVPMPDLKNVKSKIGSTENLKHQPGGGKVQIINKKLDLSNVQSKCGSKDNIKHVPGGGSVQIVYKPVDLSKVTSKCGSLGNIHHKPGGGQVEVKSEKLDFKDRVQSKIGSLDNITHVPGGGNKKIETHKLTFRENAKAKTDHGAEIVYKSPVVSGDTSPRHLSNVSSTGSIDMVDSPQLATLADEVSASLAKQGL
Protocol: as §2
This strategic extension aimed to validate the chromeno[3,4-b]-xanthone scaffold for related aggregation targets, considering the structural and pathological similarities between Aβ and tau aggregation processes. […]. […] Nevertheless, it is important to interpret the results cautiously, as the inability of certain compounds to cross bacterial membranes, may have underestimated their true inhibitory activity in the assay.
For the cloning and overexpression of full-length tau protein, E. coli BL21 (DE3) competent cells were transformed first with the pTARA vector containing the RNA polymerase gene of phage T7 (T7RP), controlled by the PBAD promoter. Subsequently, E. coli BL21(DE3) competent cells containing pTARA were transformed with the pRKT42 vector encoding four repeats of tau protein in two inserts. Similar to the procedure for Aβ42, overnight cultures were prepared by inoculating colonies of BL21 (DE3) cells bearing the plasmids in M9 medium supplemented with 0.5% glucose, 50 μg mL^–1 ampicillin, and 12.5 μg mL^–1 chloramphenicol at 37 °C. Upon induction, a 1:500 dilution of the overnight culture was added to fresh M9 minimal medium containing 0.5% glucose, 50 μg mL^–1 ampicillin, 12.5 μg mL^–1 chloramphenicol, and 25 μM ThS. The subsequent steps mirrored those for the Aβ assay, including the addition of the compound to be tested dissolved in DMSO and 10 μL of 25% arabinose or, alternatively, 10 μL of water for the noninduced controls, with a final compound concentration of […]. Negative controls for tau overexpression utilized free DMSO.
as §3

[5] = in vitro; details: for Prediction (penetration into the CNS): class from PAMPA-BBB P e; for Papp at 2.5 h: PAMPA, pH 7.4
Protocol: To assess BBB permeability, a parallel artificial membrane permeability assay (PAMPA)-BBB was performed, which predicts passive BBB permeability using a brain lipid porcine membrane.
The prediction of the brain penetration was evaluated using a PAMPA-BBB. […] Next, 100 μL of these stock solutions were added to a solution of 1400 μL of EtOH and 3500 μL of PBS at pH 7.4, to reach 30% of EtOH concentration in the experiment. These solutions were filtered, using Filter PDVF membrane units (diameter 30 mm, pore size 0.45 μm, from Symta). After this, the acceptor 96-well microplate (Multiscreen, catalogue no. MAMCS9610, from Millipore) was filled with 180 μL of PBS/EtOH (70/30). […] After 5 min, 180 μL of each compound solution was added. 1–2 mg of each selected compound was dissolved in 1500 μL of EtOH and 3500 μL of PBS at pH 7.4, filtered, and then added to the donor 96-well plate to determine their ability to cross the brain barrier. After this, the donor plate was carefully put on the acceptor plate to form a “sandwich” and incubated for 2.5 h at 25 °C. During this period, the compounds diffused from the donor plate through the brain lipid membrane into the acceptor plate. Afterward, the donor plate was removed. A 96-well plate UV reader (Thermoscientific, Multiskan spectrum) was used to determine the concentration of compounds and commercial drugs in the acceptor and donor wells. Every sample was analyzed at three to five wavelengths, in three wells, and in two independent runs. […] Ten quality control compounds (previously mentioned) of known BBB permeability were included in each experiment to validate the analysis set.

T1 sequence (P81908 whole entry): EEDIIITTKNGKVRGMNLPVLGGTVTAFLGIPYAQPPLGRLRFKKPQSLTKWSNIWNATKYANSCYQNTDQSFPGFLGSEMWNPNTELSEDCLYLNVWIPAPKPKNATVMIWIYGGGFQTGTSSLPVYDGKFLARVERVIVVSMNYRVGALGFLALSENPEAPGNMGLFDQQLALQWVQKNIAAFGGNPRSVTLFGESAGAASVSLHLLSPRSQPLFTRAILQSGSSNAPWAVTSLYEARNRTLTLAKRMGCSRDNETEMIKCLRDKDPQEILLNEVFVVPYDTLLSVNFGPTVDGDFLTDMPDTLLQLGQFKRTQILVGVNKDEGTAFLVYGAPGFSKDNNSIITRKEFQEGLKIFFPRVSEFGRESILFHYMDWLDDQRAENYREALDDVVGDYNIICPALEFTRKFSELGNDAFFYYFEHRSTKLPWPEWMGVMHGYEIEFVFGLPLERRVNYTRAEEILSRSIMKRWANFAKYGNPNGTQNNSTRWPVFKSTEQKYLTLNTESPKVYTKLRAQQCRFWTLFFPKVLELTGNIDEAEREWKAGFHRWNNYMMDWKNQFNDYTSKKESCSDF

| Compound | IC50 [1] | inhibition at 50 µM [2] | IC50 [3] | SI eeAChE [3] | inhibition at 50 µM [4] | Prediction (penetration into the CNS) [5] | Papp at 2.5 h ([5]; pig) | Papp at 2.5 h [5] |
| --- | --- | --- | --- | --- | --- | --- | --- | --- |
| COc1ccc2c(=O)c3cc4c(cc3oc2c1OC)-c1ccccc1OC4 [Compound 11d, 11,12-Dimethoxy-6H,8H-chromeno[3,4-b]xanthen-8-one] | 7.1 ± 0.1 µM | 40 ± 6.4% |  |  |  |  |  |  |
| COc1cc(OC)c2c(=O)c3cc4c(cc3oc2c1)-c1ccccc1OC4 [Compound 11e, 9,11-Dimethoxy-6H,8H-chromeno[3,4-b]xanthen-8-one] | 9.4 ± 0.2 µM | 36 ± 4.4% |  |  |  |  |  |  |
| COc1ccc2c(c1)-c1cc3oc4ccccc4c(=O)c3cc1CO2 [Compound 11f, 2-Methoxy-6H,8H-chromeno[3,4-b]xanthen-8-one] | 6.1 ± 0.5 µM | 36 ± 7.8% | 6.9 ± 1.5 µM | 0.88 |  |  |  |  |
| O=c1c2ccccc2oc2cc3c(cc12)COc1ccc(OC(F)(F)F)cc1-3 [Compound 11h, 2-(Trifluoromethoxy)-6H,8H-chromeno[3,4-b]xanthen-8-one] | 6.2 ± 0.7 µM | 41 ± 6.4% | 4 ± 1.2 µM | 1.55 |  |  |  |  |
| O=c1c2ccccc2oc2cc3c(cc12)COc1ccc(F)cc1-3 [Compound 11i, 2-Fluoro-6H,8H-chromeno[3,4-b]xanthen-8-one] |  | 47 ± 8.4% |  |  | 52 ± 6.3% |  |  |  |
| O=c1c2ccccc2oc2cc3c(cc12)COc1c(Br)cc(Cl)cc1-3 [Compound 11k, 4-Bromo-2-chloro-6H,8H-chromeno[3,4-b]xanthen-8-one] | 6.2 ± 1 µM | 46 ± 3.7% | 4.2 ± 0.9 µM | 1.48 | 52 ± 7.2% | CNS± (Uncertain BBB permeation (CNS±) 3.93 > P e > 1.82) | 2.3 ± 1.11 ×10⁻⁶ cm/s |  |
| COc1ccc2c(c1)-c1cc3oc4cc(OC)ccc4c(=O)c3cc1CO2 [Compound 11l, 2,11-Dimethoxy-6H,8H-chromeno[3,4-b]xanthen-8-one] | 9 ± 0.5 µM | 40 ± 5.1% | 4.8 ± 0.5 µM | 1.88 |  |  |  |  |
| COc1ccc2c(c1)-c1cc3oc4cccc(OC)c4c(=O)c3cc1CO2 [Compound 11m, 2,9-Dimethoxy-6H,8H-chromeno[3,4-b]xanthen-8-one] | 7.3 ± 0.4 µM | 30 ± 6.6% |  |  |  |  |  |  |
| COc1ccc2c(=O)c3cc4c(cc3oc2c1)-c1cc(F)ccc1OC4 [Compound 11q, 2-Fluoro-11-methoxy-6H,8H-chromeno[3,4-b]xanthen-8-one] |  | 50 ± 6.7% | 4.3 ± 1.5 µM |  | 55 ± 5.9% | CNS+ (High BBB permeation predicted (CNS+) P e > 3.93) | 6.04 ± 1.99 ×10⁻⁶ cm/s |  |
| COc1ccc2c(=O)c3cc4c(cc3oc2c1)-c1cc(Cl)cc(Br)c1OC4 [Compound 11s, 4-Bromo-2-chloro-11-methoxy-6H,8H-chromeno[3,4-b]xanthen-8-one] | 7 ± 0.4 µM | 46 ± 6.3% | 1.7 ± 1.2 µM | 4.12 | 58 ± 7.1% | CNS+ (High BBB permeation predicted (CNS+) P e > 3.93) | 8.7 ± 0.61 ×10⁻⁶ cm/s |  |
| COc1ccc2c(=O)c3cc4c(cc3oc2c1)-c1c(ccc2ccccc12)OC4 [Compound 12b] |  | 54 ± 6.2% |  |  | 57 ± 7% |  |  |  |
| CNCCCN1c2ccccc2CCc2ccccc21 [Desipramine, reference compound] |  |  |  |  |  |  | 15.6 ± 1.78 ×10⁻⁶ cm/s |  |
| CCn1cc(C(=O)O)c(=O)c2cc(F)c(N3CCNCC3)nc21 [Enoxacin, reference compound] |  |  |  |  |  |  | 0.15 ± 0.15 ×10⁻⁶ cm/s |  |
| CN1C(C(=O)Nc2ccccn2)=C(O)c2ccccc2S1(=O)=O [Piroxicam, reference compound] |  |  |  |  |  |  | 0.19 ± 0.02 ×10⁻⁶ cm/s |  |
| CN(C)CCCN1c2ccccc2Sc2ccccc21 [Promazine, reference compound] |  |  |  |  |  |  |  | 15.4 ± 0.91 ×10⁻⁶ cm/s |
